Tests used:
Type in all cases: ADME
[1] = test system: Liver microsome; test: Drug metabolism in human liver microsomes assessed as intrinsic clearance for drug glucuronidation per mg tissue in absence of BSA by LC-MS/MS method
[2] = target: T1, UDP-glucuronosyltransferase 1A9 (Homo sapiens, UniProt O60656); test: Activity of human recombinant UGT1A9 expressed in insect cells assessed as intrinsic clearance for enzyme mediated glucuronidation per mg protein by LC-MS/MS method
T1 sequence (O60656 whole entry): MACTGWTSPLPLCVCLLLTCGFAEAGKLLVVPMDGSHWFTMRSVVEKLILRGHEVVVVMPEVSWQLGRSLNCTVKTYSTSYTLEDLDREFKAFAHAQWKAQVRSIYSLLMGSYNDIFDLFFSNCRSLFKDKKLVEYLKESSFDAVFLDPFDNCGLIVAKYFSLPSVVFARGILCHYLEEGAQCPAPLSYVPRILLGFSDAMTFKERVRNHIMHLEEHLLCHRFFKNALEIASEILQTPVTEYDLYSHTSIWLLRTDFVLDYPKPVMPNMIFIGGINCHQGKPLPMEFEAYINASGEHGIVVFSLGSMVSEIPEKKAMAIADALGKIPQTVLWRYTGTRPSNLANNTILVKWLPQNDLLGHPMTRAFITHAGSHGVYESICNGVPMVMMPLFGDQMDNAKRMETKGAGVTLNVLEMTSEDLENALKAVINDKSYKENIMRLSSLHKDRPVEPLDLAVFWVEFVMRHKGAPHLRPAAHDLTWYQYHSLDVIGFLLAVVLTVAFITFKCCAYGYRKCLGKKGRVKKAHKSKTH

[3] = target: T2, UDP-glucuronosyltransferase 1A10 (Homo sapiens, UniProt Q9HAW8); test: Activity of human recombinant UGT1A10 expressed in insect cells assessed as enzyme mediated glucuronidation at 500 uM by LC-MS/MS method
T2 sequence (Q9HAW8 whole entry): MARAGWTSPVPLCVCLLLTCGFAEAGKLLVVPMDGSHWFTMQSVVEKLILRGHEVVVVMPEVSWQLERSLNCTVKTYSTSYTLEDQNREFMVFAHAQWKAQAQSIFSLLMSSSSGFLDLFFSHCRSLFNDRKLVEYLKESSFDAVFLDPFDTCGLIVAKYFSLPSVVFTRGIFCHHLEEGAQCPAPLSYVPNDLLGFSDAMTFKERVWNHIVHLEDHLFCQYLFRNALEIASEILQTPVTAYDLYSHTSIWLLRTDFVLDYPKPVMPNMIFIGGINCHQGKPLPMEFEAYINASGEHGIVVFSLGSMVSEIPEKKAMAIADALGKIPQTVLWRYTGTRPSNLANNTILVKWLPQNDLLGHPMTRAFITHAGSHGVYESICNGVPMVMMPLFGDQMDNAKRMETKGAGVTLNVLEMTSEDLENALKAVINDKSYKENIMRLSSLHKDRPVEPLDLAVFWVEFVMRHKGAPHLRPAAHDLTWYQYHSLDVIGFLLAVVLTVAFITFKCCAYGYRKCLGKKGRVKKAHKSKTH

[4] = target: T3, UDP-glucuronosyltransferase 1A6 (Homo sapiens, UniProt P19224); test: Activity of human recombinant UGT1A6 expressed in insect cells assessed as intrinsic clearance for enzyme mediated glucuronidation per mg protein by LC-MS/MS method
T3 sequence (P19224 whole entry): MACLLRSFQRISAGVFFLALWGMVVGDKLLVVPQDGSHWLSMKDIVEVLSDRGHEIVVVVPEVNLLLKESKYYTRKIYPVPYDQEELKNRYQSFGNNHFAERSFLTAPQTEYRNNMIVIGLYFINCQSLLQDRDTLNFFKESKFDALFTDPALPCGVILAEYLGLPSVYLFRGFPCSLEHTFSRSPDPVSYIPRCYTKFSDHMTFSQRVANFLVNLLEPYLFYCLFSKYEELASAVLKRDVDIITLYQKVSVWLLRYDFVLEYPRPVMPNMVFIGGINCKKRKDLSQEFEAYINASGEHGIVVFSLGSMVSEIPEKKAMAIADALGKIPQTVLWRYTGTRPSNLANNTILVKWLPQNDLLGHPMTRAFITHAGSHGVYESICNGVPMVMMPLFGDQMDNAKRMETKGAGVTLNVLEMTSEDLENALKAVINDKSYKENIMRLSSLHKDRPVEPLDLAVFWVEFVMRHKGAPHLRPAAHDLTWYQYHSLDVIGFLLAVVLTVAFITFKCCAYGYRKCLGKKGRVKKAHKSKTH

[5] = target: T4, UDP-glucuronosyltransferase 1A1 (Homo sapiens, UniProt P22309); test: Activity of human recombinant UGT1A1 expressed in insect cells assessed as enzyme mediated glucuronidation at 500 uM by LC-MS/MS method
T4 sequence (P22309 whole entry): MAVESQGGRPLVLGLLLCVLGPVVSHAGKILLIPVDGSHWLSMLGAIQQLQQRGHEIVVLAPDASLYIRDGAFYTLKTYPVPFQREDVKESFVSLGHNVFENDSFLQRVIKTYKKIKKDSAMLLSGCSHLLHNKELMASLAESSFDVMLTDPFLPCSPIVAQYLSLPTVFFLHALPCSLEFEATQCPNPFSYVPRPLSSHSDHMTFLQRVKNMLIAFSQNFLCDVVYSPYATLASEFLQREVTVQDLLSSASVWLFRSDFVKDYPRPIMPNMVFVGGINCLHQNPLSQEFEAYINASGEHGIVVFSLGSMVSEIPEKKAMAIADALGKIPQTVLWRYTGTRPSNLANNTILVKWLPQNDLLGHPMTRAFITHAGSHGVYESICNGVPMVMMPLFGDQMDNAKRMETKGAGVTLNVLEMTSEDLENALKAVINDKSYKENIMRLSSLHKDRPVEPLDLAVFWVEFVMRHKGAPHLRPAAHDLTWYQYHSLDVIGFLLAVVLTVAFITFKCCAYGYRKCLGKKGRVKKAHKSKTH

[6] = target: T5, UDP-glucuronosyltransferase 1A7 (Homo sapiens, UniProt Q9HAW7); test: Activity of human recombinant UGT1A7 expressed in insect cells assessed as intrinsic clearance for enzyme mediated glucuronidation per mg protein by LC-MS/MS method
T5 sequence (Q9HAW7 whole entry): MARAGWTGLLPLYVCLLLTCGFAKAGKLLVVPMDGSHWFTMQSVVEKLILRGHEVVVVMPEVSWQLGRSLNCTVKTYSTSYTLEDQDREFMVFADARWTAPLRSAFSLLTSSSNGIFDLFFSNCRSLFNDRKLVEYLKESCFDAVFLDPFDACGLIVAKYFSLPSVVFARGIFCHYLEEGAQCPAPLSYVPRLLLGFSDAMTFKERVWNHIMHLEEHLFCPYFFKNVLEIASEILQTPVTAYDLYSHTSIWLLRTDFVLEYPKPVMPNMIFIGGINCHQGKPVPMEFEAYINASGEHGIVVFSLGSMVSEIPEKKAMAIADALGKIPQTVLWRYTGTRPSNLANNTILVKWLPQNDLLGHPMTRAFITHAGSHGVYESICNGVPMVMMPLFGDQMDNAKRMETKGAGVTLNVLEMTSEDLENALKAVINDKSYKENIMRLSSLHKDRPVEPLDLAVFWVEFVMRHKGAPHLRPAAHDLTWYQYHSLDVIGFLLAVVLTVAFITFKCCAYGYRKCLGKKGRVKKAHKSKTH

CLHH [1]: 8.4 µL/min/g
CLHL [1]: 1.3 µL/min/mg
CL(high) [2]: 42.4 µL/min/mg
CL(low) [2]: 0.8 µL/min/mg
Drug metabolism [3]: metabolite_detected
clearance [4]: 1.6 µL/min/mg
Drug metabolism [5]: metabolite_detected
CL [6]: 1.7 µL/min/g
Structure (SMILES): CC1=NN(c2ccccc2)C(=O)C1 [EDARAVONE]
